Reference: patent publication US10526317B2, “Benzocyanine compounds” (PIERCE BIOTECHNOLOGY, INC., priority 2012, dated 2020)
Entries after “also recorded” stand apart in the source; their conditions may differ.

What was measured:
[1] = Absorption/emission profiles and spectral properties of the dyes; type: physicochemical
Description: The following properties of 679 Compound 1-NHS were compared with commercially available dyes.
Emission/excitation profiles for inventive and commercial compounds was determined by reconstituting the compounds in DMF at 10 mg/ml and then diluting in PBS buffer pH 7.2 to 10 μg/ml. Absorbance spectra were collected on Cary UV spectrophotometer and emission spectra were collected on Tecan Safire, shown in FIG. 1 where solid lines represent absorbance spectra and dashed lines represent emission spectra, for DyLight 680-NHS (purple), DyLight 680B-NHS (blue), 679 Compound 1-NHS (red), and Company B Compound-NHS (black). The maximum absorbance and emission for each compound is shown below.
The following properties of 679 Compound 1-NHS, 679 Compound 4/4-NHS (V08-15173), and 679 Compound 4/4-NHS (V10-04152) were compared with commercially available dyes.

[2] = Photobleaching without anti-fade, U2OS cells stained with lamin B1/dye-conjugated GAR; type: physicochemical
Description: Photobleaching of inventive and commercial compounds without anti-fade reagent was examined. U2OS cells stained with lamin B1/dye-conjugated GAR were exposed to bright light (3.4V) for 8 sec at intervals of 1 sec, the overall capture amounting to a total of about 15 min using the TR filter Obj.: 20× NA: 0.4 on the Zeiss Axio Observer .Z1 microscope. The image stacks collected from the time-lapse experiment were analyzed using ImageJ software to determine the decay rate of fluorescence intensity. The raw intensity was normalized to initial intensity for each conjugate and the photobleaching curve was plotted against time, as shown in FIG. 48. Immunostaining with 679 Compound 4/4 conjugate had shown about 2 to 3-fold brighter staining intensity compared to DyLight 680 Dye.

lamin A [3] = experiment: Immunofluorescence of nuclear envelope in U2OS cells, mouse anti-lamin A, dye-GAM (FIG. 43); type: cell-based, human; conditions: FIG. 43A
Description: U2OS (human bone cancer) or HeLa cells were seeded at 5,000 cells per well in 96-well plates and incubated for 18-20 hours at 37° C., 5% CO2 in a humidified incubator. The cells were fixed with 4% paraformaldehyde and permeabilized with 0.1% Thermo Scientific Surfact-Amps X-100 Detergent, then blocked for nonspecific IgG binding. Cells were incubated with a target-specific primary antibody for 30 minutes at room temperature (RT). After washing with PBS containing 0.05% Tween™-20 Detergent Solution, cells were incubated for 30 minutes at RT with 4 μg/mL of the appropriate secondary antibody conjugated with 679 Compound 4/4 and compared to similarly conjugated counterparts (DyLight 680, Alexa Fluor™ 680, and CF™ 680 Dyes) for 30 minutes at RT. The conjugates were affinity purified goat anti-mouse IgG (H+L) (GAM) or goat anti-rabbit IgG (H+L) (GAR). […] Microscopy time lapse experiments to measure dye photostability were performed using the appropriate shift-free optical filter set with a 40×/1.3 oil objective on a Zeiss Axio Observer™ .Z1 fluorescence microscope using an ORCA-ER-1394 Hamamatsu, CCD Digital Camera and the AxioVison™ Release 4.7 Software. […]
The nuclear envelop in U2OS cells was fluorescently labeled with mouse anti-lamin A primary antibody and detected with goat anti-mouse conjugated to 679 Compound 4/4-NHS, DyLight 680-NHS, Alexa Fluor 680-NHS and CF 680-SE Dyes. […]

[4] = Dye toxicity, H&E histology of heart, liver, spleen, lungs, kidney; type: in vivo; conditions: H&E staining of tissues after 24 h
Description: After the final time point, animals were sacrificed and their organs collected for ex vivo imaging to confirm and quantify dye accumulation in tumors, tissues, and other organs such as heart, liver, spleen, GI tract, lungs, and kidney. Images were taken before (pre), and at 0 min, 10 min, 30 min, 1 hour, 3 hour, 6 hour, 12 hour, and 24 hour post injection. To test dye toxicity, heart, liver, spleen, lungs and kidney tissues were gathered from one mouse from each cohort, fixed, stained with hematoxylin and eosin (H&E), and evaluated.
Colorimetric images were acquired at 20× on a Nikon 90i microscope.

[5] = In vivo biodistribution and clearance of free dye; set-up: species or system nude mice; conditions: 100 μL of 1 mg/mL hydrolyzed dye IV via retro orbital plexus, imaged to 24 h
Description: In in vivo biodistribution, the mice received intravenous dye injections via the retro orbital plexus and were imaged on a Carestream MSFX Imager (690 nm excitation/750 nm emission) before injection and at 0 h, 3 h, 6 h, 12 h, and 24 h post injection. After the final time point, animals were sacrificed and organs were collected for ex vivo imaging. Toxicity was evaluated by investigating the dissected tissue section.
Biodistribution and clearance was investigated in the live animals over time by measuring the clearance or specific retention of the dye/labeled target. Experiments were performed in triplicate on nude mice. 100 μL of 1 mg/mL hydrolyzed dye solution was IV injected via the retro orbital plexus. Animals were imaged using 690 nm excitation and 750 nm emission at 140 mm FOV on a Carestream XTREME (10 s) Imager. Images taken before (pre) and at 0 min, 10 min, 30 min, 1 hour, 3 hour, 6 hour, 12 hour and 24 hours post injection are shown in FIG. 44B. After the final time point, the organs were collected for ex vivo imaging to confirm and quantify accumulation of the agent in tumors, tissues, and other organs (heart, liver, spleen, GI tract, lungs and kidney), as shown in FIG. 44C using triplicate mice. 679 Compound 4/4 allowed for probe conjugation, high fluorescence with excellent sensitivity for deep-tissue in vivo imaging, and target quantification in tissues.

lamin A [6] = experiment: Immunofluorescence, U2OS cells, mouse anti-lamin A, dye-GAM secondary (FIG. 25); type: cell-based, human
Description: The inventive compounds and commercial dye were evaluated for immunofluorescence in a second cell based assay using the following protocol. Frozen U20S cell plates stored at −20° C. were placed overnight at 4° C. Storage buffer (PBS) was removed and the cells were permeabilized for 15 min (100 μl/well) with 0.1% Triton-X100 in 1×PBS buffer. Plates were blocked for 30 min in 2% BSA in 1× PBS-0.1% Trion-X100. Primary antibodies diluted in 2% BSA in 1×PBS-0.1% Trion-X100 were added to the plates (column 1-11; column 12 included only blocker) and incubated five hours at room temperature. Mouse anti-lamin A was added at 2 μg/ml and rabbit anti-lamin B1 was added at 4 μg/ml. After incubation, the antibody solution was removed from the plates and the plates were washed PBS-0.5% Tween-20 (2×100 μl/well). Next, GAM and GAR secondary antibodies labeled with DyLight 680-NHS, DyLight 680B-NHS, 679 Compound 1-NHS, and Cy5.5 Mono Ester were diluted to 4 μg/ml in PBS and incubated with the cells for one hour at room temperature. […], DyLight 680B-NHS, 679 Compound 1-NHS, […] PBS and then serially diluted 1:1 in the plate to the following concentrations: 2 μg/ml, 1 μg/ml, 0.5 μg/ml, 0.25 μg/ml, 0.125 μg/ml and/or 0.0625 μg/ml. The plates were washed 3× with 100 μl/well PBS, and Hoechst stain diluted to 0.1 μg/ml in PBS was added to each well (100 μl/well). The plates were scanned on ArrayScan Plate Reader for imaging and quantitation.
Quantitative analysis of FIG. 25 data, expressed as Mean Total Intensity, which is the average total intensity of all pixels within a defined area or defined primary object such as a nucleus, is shown below.

[7] = tested on: rabbit IgG immunoglobulin; experiment: Functional fluorescence plate assay, dye-GAR conjugates; type: binding; conditions: LiCOR Odyssey, FIGS. 17, 19
Description: Performance of the dye-GAM conjugates, dye-GAR conjugates, and dye-SA conjugates was evaluated in a functional plate assay. Wells of a 96 white opaque plate or black clear-bottom plate were coated with target proteins mouse IgG immunoglobulin, rabbit IgG immunoglobulin, or biotinylated bovine serum albumin (BBSA). One hundred μl mouse or rabbit IgG, or BBSA at a concentration of 10 μg/ml was applied to the corresponding wells in columns 1 and 2. The target proteins were serially diluted 1:1 from the wells in columns 2 to 11 using 100 μl PBS. One hundred μl of the samples from the wells in column 11 were discarded. One hundred μl PBS was added to the wells in column 12. The plates were incubated overnight at 4° C. and then blocked 2×200 μl with Thermo Scientific SuperBlock® Blocking Buffer. The coated plates were washed 2×200 μl with PBS-Tween and 1×200 μl with PBS. Based on the calculated concentrations, conjugates were diluted 1:250 in PBS, added to the corresponding plates (100 μl/well) and then incubated for one hour in the dark. The plates were washed with 2×200 μl with PBS-Tween and 1×200 μl with PBS and filled with PBS buffer (100 μl/well) prior to scanning the white opaque plates on Tecan Safire using 679 nm excitation/702 nm emission or scanning the black clear-bottom plates on LiCor Odyssey at 700 channel, to detect fluorescence intensity.

lamin A [8] = experiment: Immunofluorescence detection of lamin A in U2OS cells, dye-GAM secondary (FIG. 29A-C and repeat); type: cell-based, human; conditions: for Mean Total Intensity, Negative control: no primary antibody
Description: In the indicated experiments, the inventive compounds and commercial dye were evaluated for immunofluorescence in a cell based assay using the following protocol. Frozen U20S cell plates which were stored at −80° C. were thawed for 45 minutes at 50° C. Storage buffer (PBS) was removed and the cells were permeabilized for 15 minutes with 0.1% Triton-X100 in 1×PBS buffer (100 μl/well). The cell plate was blocked for 60 minutes in 2% BSA/PBS-0.1% Triton-X100. Primary antibody, either rat anti-Grp94 (5 μg/ml), mouse anti-lamin A (10 μg/ml), or rabbit anti-lamin B1 (10 μg/ml), diluted in 2% BSA/PBS-0.1% Triton-X100 was added to the plate and incubated for 1 hour at room temperature. Control wells contained only 2% BSA/PBS-0.1% Triton-X100 blocker. After incubation, the antibody solution was removed from the plate and the plate was washed three times with 100 μl/well of PBS-0.5% Tween-20 and one time with 100 μl/well PBS. GARat, GAM, or GAR secondary antibodies labeled with various molar excess of the inventive or commercial compound were diluted to 4 μg/ml in PBS and incubated for 1 hour at room temperature. The plates were washed three times with 100 μl/well of PBST and once with 100 μl/well PBS, and Hoechst (diluted to 0.1 μg/ml in PBS) was added to each well (100 μl/well). The plates were scanned on ArrayScan Plate Reader or ToxInsight Instrument.
Quantitative analysis of a repeat experiment of FIG. 29A-C are shown below.

COCCOCCOCCOCC[N+]1=C(/C=C/C=C/C=C2/N(CCOCCOCCOCCOCCC(=O)O)c3ccc4c(S(=O)(=O)[O-])cc(S(=O)(=O)O)cc4c3C2(C)CCOCCOCCOCCOC)C(C)(CCOCCOCCOCCOC)c2c1ccc1c(S(=O)(=O)O)cc(S(=O)(=O)O)cc21 (centres unmarked) [679 Compound 4/4]
emits at [1]: 706 nm
excites at [1]: 684 nm
photostability (in words) ([2]; absence of anti-fade agent): slightly less stable than DyLight 680 dye
staining intensity, fold brighter compared to DyLight 680 Dye ([2]; immunostaining): 2 to 3 fold
staining intensity, fold brighter compared to DyLight 680-GAM, Alexa Fluor 680-GAM and CF 680-GAM (lamin A [3]): 2-3 fold
toxicity (in words) [4]: low intrinsic toxicity; also recorded: No tissue damage was observed from histology
biodistribution and clearance (in words) [5]: rapid clearance through kidney and/or gastrointestinal tract; also recorded: fast whole-body dye uptake and displayed rapid dye clearance mainly through the kidney and GI tract

Cy5.5
Mean Total Intensity (lamin A [6]; GAM conjugated at 2X molar excess): 211945
Mean Total Intensity (lamin A [6]; GAM conjugated at 3X molar excess): 342208
Mean Total Intensity (lamin A [6]; GAM conjugated at 4X molar excess): 451111

COCC[N+]1=C(/C=C/C=C/C=C2/N(CCCCCC(=O)O)c3ccc4c(S(=O)(=O)[O-])cc(S(=O)(=O)[O-])cc4c3C2(C)C)C(C)(CCCS(=O)(=O)[O-])c2c1ccc1c(S(=O)(=O)[O-])cc(S(=O)(=O)[O-])cc21.[Na+].[Na+].[Na+].[Na+] (centres unmarked) [679 Compound 1/1, 2-{(1E,3E)-5-[3-(5-Carboxypentyl)-1,1-dimethyl-6,8-disulfo-1,3-dihydro-benzo[e]indol-(2E)-ylidene]-penta-1,3-dienyl}-3-(2-methoxy-ethyl)-1-methyl-6,8-disulfo-1-(3-sulfopropyl)-1H-benzo[e]indolium]
Raw Fluorescence Intensity, quenching at high molar excess (in words) [7]: saturating at 25×; also recorded: apparent quenching at 1000 ng/well at 25×
Mean Total Intensity (Average) (lamin A [8]; GAM conjugate 4 μg/ml, 2.5 X molar excess): 29229
Mean Total Intensity (Average) (lamin A [8]; GAM conjugate 4 μg/ml, 5.0 X molar excess): 49279
Mean Total Intensity (Average) (lamin A [8]; GAM conjugate 4 μg/ml, 7.5 X molar excess): 28782
Mean Total Intensity (Average) (lamin A [8]; GAM conjugate 4 μg/ml, 10 X molar excess): 30098
Mean Total Intensity (Average) (lamin A [8]; GAM conjugate 4 μg/ml, 15 X molar excess): 48071
Mean Total Intensity, Negative control (lamin A [8]; 2.5 X): 5628
Mean Total Intensity, Negative control (lamin A [8]; 5.0 X): 5859
Mean Total Intensity, Negative control (lamin A [8]; 10 X): 6115
Mean Total Intensity, Negative control (lamin A [8]; 15 X): 7277
S/B (lamin A [8]; repeat experiment, 2.5 X): 8.9
Mean Total Intensity (Average) (lamin A [8]; repeat experiment, 2.5 X molar excess): 77195
S/B (lamin A [8]; repeat experiment, 5 X): 16.2
Mean Total Intensity (Average) (lamin A [8]; repeat experiment, 5 X molar excess): 140772
S/B (lamin A [8]; repeat experiment, 10X): 7.8
Mean Total Intensity (Average) (lamin A [8]; repeat experiment, 10X molar excess): 159948
S/B (lamin A [8]; repeat experiment, 15 X): 12.3
Mean Total Intensity (Average) (lamin A [8]; repeat experiment, 15 X molar excess): 199626
Mean Total Intensity, Negative control (lamin A [8]; repeat experiment, 2.5 X): 8711
Mean Total Intensity, Negative control (lamin A [8]; repeat experiment, 5 X): 8674
Mean Total Intensity, Negative control (lamin A [8]; repeat experiment, 10X): 20481
Mean Total Intensity, Negative control (lamin A [8]; repeat experiment, 15 X): 16277
